This note sets out measurements from ChEMBL document CHEMBL1201862, “PubChem BioAssay data set” (2004).

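Step 1: Grow cells in 96-well plates. Step 2: Expose to compound for 48 hours at 5 concentrations. Step 3: Interpolate endpoints linearly; if unreached, use highest concentration. Here, GI50 denotes the concentration required for 50% inhibition of growth.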 Active and inactive are the calls of the source. No stated cut-off is given here; in the data, active = GI50 up to about 1.1 µM and inactive = higher. Bounds are passed on as bounds.

Among the test systems are COLO 205; TK-10; HCC 2998; HT-29; M14; SNB-78; SK-MEL-2; SF-539; HOP-92; SR; UACC-62; SF-295; HOP-62; A498; Malme-3M; OVCAR-5; NCI/ADR-RES; Hs-578T; DU-145.
Common to all, as to assay: NCI-60 cell line screen, 48 h

For the molecule `CCOC(=O)c1c(/C=N\Nc2ccccc2)nc2ccccc2c1-c1ccccc1`, the GI50 in the assay on COLO 205 was 24 µM (inactive); in the assay with TK-10 it was > 100 µM (inactive); in the assay with HCC 2998, 21.8 µM (inactive); with HT-29, 37.6 µM (inactive); with M14 it was 36.7 µM (inactive); in the assay on SNB-78, 51.1 µM (inactive). Moreover, the GI50 in the assay on SK-MEL-2 was 40.8 µM (inactive); in the assay on SF-539, 68.5 µM (inactive); in the assay on HOP-92, 45.4 µM (inactive); in the assay with SR, 19.2 µM (inactive); in the assay with UACC-62, 25 µM (inactive); in the assay with SF-295 it was 61.5 µM (inactive). The GI50 in the assay on HOP-62 was 39 µM (inactive); in the assay on A498, 60.4 µM (inactive); in the assay with Malme-3M, 35.1 µM (inactive); with OVCAR-5, > 100 µM (inactive).

Turning to `COc1ccc2c[n+](C)c3c4cc(OC)c(OC)cc4ccc3c2c1`, the GI50 was 0.776 µM (active) in the assay with COLO 205; 17.8 µM (inactive) in the assay on TK-10; 8.11 µM (inactive) in the assay with HCC 2998; 4.1 µM (inactive) in the assay on HT-29; 15.7 µM (inactive) with M14; 12.2 µM (inactive) in the assay with SNB-78. Besides, the GI50 in the assay on SK-MEL-2 is 10.9 µM (inactive); in the assay on SF-539 it was 10.7 µM (inactive); in the assay on HOP-92, 10.1 µM (inactive); in the assay on NCI/ADR-RES, > 100 µM (inactive); with Hs-578T it was 2.6 µM (inactive); in the assay on DU-145 it was 10.3 µM (inactive). Moreover, the GI50 was 2.87 µM (inactive) in the assay on SR; 18.5 µM (inactive) in the assay on UACC-62; 5.13 µM (inactive) in the assay on SF-295; 8.02 µM (inactive) in the assay on HOP-62; 45.8 µM (inactive) with A498; 7.6 µM (inactive) in the assay with Malme-3M. For the same molecule, the GI50 in the assay on OVCAR-5 was 8.63 µM (inactive).

Regarding `Cc1ccccc1C1CC(c2ccccc2)=NO1` (stereo not drawn), the GI50 in the assay on COLO 205, with TK-10, with HCC 2998, with HT-29, in the assay with M14 and in the assay with SNB-78 was > 100 µM (inactive) each time. The GI50 in the assay with SK-MEL-2, with SF-539, in the assay on HOP-92, with SR, in the assay on UACC-62 and with SF-295 was > 100 µM (inactive) in each case. The GI50 in the assay with HOP-62, with A498, with Malme-3M and in the assay on OVCAR-5 was > 100 µM (inactive) in each case.

Regarding `Cc1cccc(C)c1NC(=O)CCc1nnc2s/c(=C\c3ccc(Cl)cc3)c(=O)n12`, the GI50 is 92 µM (inactive) with COLO 205; 42.3 µM (inactive) with TK-10; > 100 µM (inactive) with HCC 2998; > 100 µM (inactive) in the assay with HT-29; > 100 µM (inactive) in the assay on M14; 70 µM (inactive) in the assay on SNB-78. The GI50 is 60.5 µM (inactive) in the assay on SK-MEL-2; 40.6 µM (inactive) in the assay with SF-539; > 100 µM (inactive) in the assay with HOP-92; > 100 µM (inactive) in the assay with SR; > 100 µM (inactive) with UACC-62; 70.6 µM (inactive) with SF-295. Also, the GI50 in the assay with HOP-62 is 22 µM (inactive); in the assay on A498, > 100 µM (inactive); in the assay on Malme-3M it was > 100 µM (inactive); with OVCAR-5, > 100 µM (inactive).

On to `Cc1ccc2c(c1)SC(c1cc3c(cc1Br)OCO3)S2` (stereo not drawn), for which the GI50 in the assay on COLO 205 was > 31.6 µM (inactive); in the assay on TK-10 it was > 31.6 µM (inactive); in the assay on HCC 2998, 31 µM (inactive); in the assay on HT-29, 18.7 µM (inactive); in the assay with M14, > 31.6 µM (inactive); in the assay with SNB-78, > 31.6 µM (inactive). For the same molecule, the GI50 was > 31.6 µM (inactive) in the assay with SK-MEL-2; > 31.6 µM (inactive) in the assay on SF-539; 6.22 µM (inactive) in the assay with HOP-92; 23.3 µM (inactive) in the assay on SR; > 31.6 µM (inactive) in the assay on UACC-62; > 31.6 µM (inactive) with SF-295. Besides, the GI50 with HOP-62, with A498, with Malme-3M and in the assay with OVCAR-5 was > 31.6 µM (inactive) in each case.
